Measurements as given in US20090036484A1, “Use of Unsaturated Quionoline or Naphtalene Derivatives as Medicaments” (AstraZeneca AB, priority 2004, published 2009).

Target: T1, recombinant human GR (Homo sapiens, UniProt P04150)
T1 construct: purchased Panvera/Invitrogen P2812 (kit P2893)
T1 sequence (P04150 1-777): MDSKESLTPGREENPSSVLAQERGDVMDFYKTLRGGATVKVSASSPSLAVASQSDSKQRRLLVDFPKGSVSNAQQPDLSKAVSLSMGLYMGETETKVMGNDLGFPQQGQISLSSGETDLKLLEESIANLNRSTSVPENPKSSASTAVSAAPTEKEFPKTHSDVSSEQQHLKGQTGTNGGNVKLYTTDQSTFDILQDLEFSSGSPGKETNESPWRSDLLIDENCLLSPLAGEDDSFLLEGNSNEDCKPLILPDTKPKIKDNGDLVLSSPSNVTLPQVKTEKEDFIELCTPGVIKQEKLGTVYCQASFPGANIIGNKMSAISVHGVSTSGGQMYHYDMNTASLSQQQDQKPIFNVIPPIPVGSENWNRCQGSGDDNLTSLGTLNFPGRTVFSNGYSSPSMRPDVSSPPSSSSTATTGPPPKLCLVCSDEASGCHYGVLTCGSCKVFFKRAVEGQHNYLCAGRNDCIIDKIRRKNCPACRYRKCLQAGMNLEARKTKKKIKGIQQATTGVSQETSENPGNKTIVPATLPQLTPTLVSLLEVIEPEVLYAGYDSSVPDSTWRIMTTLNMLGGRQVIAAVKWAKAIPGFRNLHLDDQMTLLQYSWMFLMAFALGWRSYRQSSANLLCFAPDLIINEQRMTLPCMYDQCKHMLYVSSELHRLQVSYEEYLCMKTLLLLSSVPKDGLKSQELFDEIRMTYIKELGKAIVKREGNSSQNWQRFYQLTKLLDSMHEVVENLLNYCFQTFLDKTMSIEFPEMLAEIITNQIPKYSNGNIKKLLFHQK
Assay: Human Glucocorticoid Receptor (GR) fluorescence polarization assay
Assay type: binding
Conditions: GS Red tracer, 2 hours at room temperature
Method: Human Glucocorticoid Receptor (GR) Assay
The assay is based on a commercial kit from Panvera/Invitrogen (Part number P2893). The assay technology is fluorescence polarization. The kit utilises recombinant human GR (Panvera, Part number P2812), a Fluoromone™ labelled tracer (GS Red, Panvera, Part number P2894) and a Stabilizing Peptide 10× (Panvera, Part number P2815). The GR and Stabilizing Peptide reagents are stored at −70° C. while the GS Red is stored at −20° C. Also included in the kit are 1M DTT (Panvera, Part number P2325, stored at −20° C.) and GR Screening buffer 10× (Panvera, Part number P2814, stored at −70° C. initially but once thawed stored at room temperature). Avoid repeated freeze/thaws for all reagents. The GR Screening buffer 10× comprises 100 mM potassium phosphate, 200 mM sodium molybdate, 1 mM EDTA and 20% DMSO.
Test compounds (1 μL) and controls (1 μL) in 100% DMSO were added to black polystyrene 384-well plates (Greiner low volume black flat-bottom, part number 784076). 0% control was 100% DMSO and 100% control was 10 μM Dexamethasone. […] The plate was read in an Analyst plate reader (LJL Biosystems/Molecular Devices Corporation) or other similar plate reader capable of recording fluorescence polarization (excitation wavelength 530 nm, emission wavelength […] and a dichroic mirror at 561 nm). The IC50 values were calculated using XLfit model 205.

## CC1=CC(C)(C)N(Cc2ccc(Cl)cc2)c2ccccc21 [CAS120109-44-6]
  IC50: 240 nM
